Assay results from a melting point compilation (Tetko et al.; mined from patent text by program, amines drawn as free bases though some values may be those of a salt).

SMILES | melting point [°C]
COc1ccc(C(=O)NCCC=CCCCNC(=O)c2ccc(OC)cc2)cc1 | 141 to 143
COC1=CC23CCN(C=O)C(Cc4cccc(OC)c42)C3CC1 (stereo not given) | 169 to 172
CC(=O)n1nc(-c2cnccn2)nc1-c1cnccn1 | 128 to 130
COc1ccc(Sc2ccc(C=[N+]([O-])C(C)(C)C)o2)cc1 | 91.7
N#Cc1ccc(-c2cnc(Cl)o2)cc1 | 144
FC(F)(F)c1cc(CO[C@H]2CCCN(Cc3ccccc3)[C@H]2c2ccccc2)cc(C(F)(F)F)c1 | 89 to 93
NN(c1ccccc1)C1CCS(=O)(=O)C1 (stereo not given) | 120 to 121
CNc1cc(Oc2nn(C)c(C(F)(F)F)c2Cl)ccc1C#N | 115 to 117
OC1CSC(Oc2cnc(-c3ccncc3)c(F)c2)C(O)C1O (stereo not given) | 192
Nc1cccc(C(=O)NS(=O)(=O)c2ccccc2)c1 | 138
CCC(=O)Nc1c(C(=O)c2ncccc2CO)[nH]c2cc(Cl)ccc12 | 198 to 199
C1=CC2(C3OCCO3)OC1c1ccccc12 (stereo not given) | 48 to 49
COC(=O)C1=CSCC1OC (stereo not given) | 79 to 81
O=C(O)Cc1ccc2c(c1)CCc1ccccc1C2=O | 154
Cc1c(C(=O)Nc2ccc(N3CCC(N4CCOCC4)CC3)c(C(N)=O)c2)cnn1-c1ccc(Cl)cc1 | 270
CCS(=O)(=O)N[C@H](C(=O)NCCc1cc(Br)c(OCc2ccccc2)c(OC)c1)C(C)C | 128 to 130
CCOC(=O)/C=C/c1cnc(-c2ccc(O)c(C34CC5CC(CC(C5)C3)C4)c2)nc1 | 226 to 228
CN1C[C@H](CN2CCN(C(c3ccccc3)c3ccccc3)CC2)C=C2c3cccc4c3c(cn4C)C[C@H]21 | 172 to 175
CS(=O)(=O)c1ccc(C(CC2CCOCC2)c2ccc(-c3ccccn3)[nH]2)cn1 (stereo not given) | 89 to 90
CCC(=O)C1=C(O)CC(c2ccc3c(c2)CCC3)CC1=O (stereo not given) | 98
CC(C)Nc1nc(N)c(C(=O)NC(N)=S)nc1Cl | 195
CCCCCCNC(=S)NC(=O)c1ccc(C#N)cc1 | 95 to 96

SMILES | melting point [°C]
CC(C)OC(=O)Cn1c(=O)n(C)c(=O)n(-c2cc(N3C(=O)C4CS(=O)CCN4C3=O)c(F)cc2Cl)c1=O (stereo not given) | 175 to 180
COC(=O)C1CN1C(C)=O (stereo not given) | 39 to 40
Cc1ccc2c(c1)C1CN(CCO)CCC1N2 (stereo not given) | 182 to 185
Nc1c(F)c(N2C[C@H](CF)[C@H](N)C2)c(F)c2c1c(=O)c(C(=O)O)cn2C1CC1 (relative stereo) | 248 to 249
CCCCN(CCCC)C(=O)c1c(C)n(CCc2ccccc2)c2cc(C(=O)CC)c(O)c(CN3CCCCC3)c12 | 111 to 112
CC(C)(C)OOC(C)(CCC(=O)N(N)C(=O)OCCOCCOC(=O)N(N)C(=O)CCC(C)(OOC(C)(C)C)OOC(C)(C)C)OOC(C)(C)C | 45 to 50
O=S1(=O)NC2CCCN2c2ccc(O)cc21 (stereo not given) | 237 to 242
N=C(NO)c1ccc(-c2cccc(-c3nc4ccc(C(=N)NO)cc4[nH]3)n2)cc1 | > 290
c1cc2cc[nH]c2cn1 | 132 to 134
Cc1nc(-c2ccc([N+](=O)[O-])cc2)c(-c2ccc([N+](=O)[O-])cc2)[nH]1 | 230 to 232
Cc1cc(SCc2cc(-c3ccc(C(F)(F)F)cc3)on2)c(Cl)cc1OCC(=O)O | 120 to 121
CCCCCc1ccc(-c2ccc(Cl)s2)cn1 | 32
CCOC(=O)c1ncoc1-c1cc(Cl)nc(Cl)c1 | 108 to 109
Cn1cc(C2OC(=O)NC2=O)c2ccccc21 (stereo not given) | 152 to 154
CCCCn1c(=O)n2cnnc2c2[nH]c(-c3cc(S(=O)(=O)N4CCN(C(C)(C)CO)CC4)ccc3OCCC)nc21 | 237
Nc1ccc(-c2noc3cc(F)ccc23)cc1[N+](=O)[O-] | 239
CCCCCCCCC(=O)OC(C)c1ccc(-c2ccc(OC)cc2)cc1 (single isomer, unassigned; (+)) | 59 to 60
CCOC(=O)C(C)NC(=O)N(C)N (stereo not given) | 77 to 79.5
COc1cccc(CC(=O)O)c1OCCCc1cn(-c2ccc(Cl)cn2)nc1C(C)(C)C | 87 to 88
CCC(OC(=O)CS(C)(=O)=O)c1ccc(Cl)c2nc3n(c12)CCCN3c1ccc(Cl)cc1Cl (stereo not given) | 187 to 189
COc1ccc(-c2c3ccccc3cc3sc4ccccc4c23)cc1C#N | 230 to 232
c1cn(Cc2ccc3c(c2)Cc2c(-c4ccsc4)n[nH]c2-3)cn1 | 255 to 260

SMILES | melting point [°C]
CC(C)Cn1cnc2c(Br)c(NC3=NCCN3)ccc21 | 226 to 227
COc1ccc(C(C)C)cc1-c1cc(-c2nnnn2C2CCN(C(=O)CC(C)C)CC2)c(O)cc1O | 220 to 224
COC(=O)c1ccc(OCCCCCOc2ccc(C(=O)OC)cc2)cc1 | 93 to 95
CN1CCCCC1CCc1ccccc1NC(=O)c1ccc(C(F)(F)F)cc1 (stereo not given) | 150
COC(=O)c1ccc(OCCNC(=O)C2Cc3ccccc3N2S(=O)(=O)c2ccc(-c3ccc(F)cc3)cc2)c(Cl)c1 (stereo not given) | 84 to 90
C#CCN1C(=O)C(C)Oc2cc(F)c(N)cc21 (stereo not given) | 142 to 145
CCCCc1nc(-c2ccc(N3CCN(C(=O)c4ccccc4C(F)(F)F)CC3)nn2)no1 | 175
CC1(C)CC(=O)CC(=O)N1 | 183 to 184
COc1ccc(-c2nc(Cn3ccnn3)co2)cc1 | 126 to 127
COCc1ccc(Oc2cc(OC(C)C)c3[nH]c(C4=NCC(CC(=O)NC5CC5)S4)cc3c2)cn1 (stereo not given) | 100 to 101
O=C1c2ccccc2-c2c1c1ccccc1c(=O)n2CCCCCCO | 139 to 141
O=C(O)CCCc1cnoc1-c1ccccc1 | 67 to 68
CCOC(=O)Cc1c2cc(OC)ccc2n2c(Cc3ccccn3)nccc12 | 103 to 104
CCNC(=O)c1ccccc1OC(C)(C)C | 34.5 to 36
O=C(C1CCN(c2ccncc2)CC1)N1CCN(S(=O)(=O)c2ccc3ccccc3c2)C(Cc2ccccc2)C1 (stereo not given) | 186 to 188
O=Cc1c[nH]c2c1ccc1c3cc(-c4ccc(OC(F)(F)F)cc4)ccc3[nH]c12 | > 250
CC(C)(C)CNC(=NC#N)Nc1cccnc1 | 214 to 215
CS(=O)(=O)c1ccc(-n2cncc2-c2ccccc2)cc1 | 164
CC(C)(O)c1ccc2c(c1)SC(c1ccccc1)C(c1ccc3c(c1)NC(=O)CO3)=C2 (stereo not given) | 241 to 245
COC(=O)COCc1cc(Br)ccc1C(=O)OC | 60 to 62
Cc1oc(-c2ccc(C(F)(F)F)cc2)nc1COc1ccc(S(=O)(=O)Cl)cc1 | 90 to 93

Further lines, results first:

melting point [°C] | SMILES
103 | COc1cc(O)c(C(=O)C=Cc2ccc(C)o2)c(OC)c1
100 to 101 | OCc1c(Cl)cc(Cl)cc1Cl
252 to 253 | CCn1cc(C(=O)NC2Cc3ccccc3C2)c(=O)c2cnc(N3CCCC3)nc21
118 to 119 | CC(=NOCCOc1ccc(CC2SC(=O)NC2=O)cc1)c1ccc(Cl)cc1 (stereo not given)
196 to 199 | CCCc1nn(C)c2c(=S)[nH]c(-c3cc(S(=O)(=O)N4C[C@@H](C)N[C@@H](C)C4)ccc3OCC)nc12
236 to 237 | CC1(C)OC(=O)Nc2ccc(-c3cccc(C#N)c3)cc21
70 to 71 | CN[C@@H]1COc2cc(Cl)ccc2O1
167 to 169 | CCCc1cn(Cc2ccc(C(=O)OC)cc2OC)c2cc(C=C(C)C(=O)O)ccc12
174 to 176 | COC(=O)Nc1ccc(-c2ncon2)cc1
150 to 152 | CC(C)CCS(=O)(=O)NC(=O)/C=C/c1cc(OC2CCOCC2)nn1Cc1ccc(C(F)(F)F)cc1Cl
197 to 199 | Cn1nc(-c2c(Cl)cccc2Cl)nc1-c1sc(Br)c(Cl)c1Cl
83 | C#CCN1CCCc2ccc(OC(=O)Nc3ccccc3OC)cc21
162 to 164 | CCCSc1nc(C)nc(S)c1[N+](=O)[O-]
155 to 157 | NC(=NO)c1c(F)cccc1C(F)(F)F
159 | Cc1nc(NCC(=O)c2ccccc2)c2cc(C)sc2n1
168 to 170 | CCOC(=O)NNc1ccc(-c2cccc(C(F)(F)F)c2)nn1
109 to 110 | CCOC(=O)c1sc(=O)[nH]c1C(Cl)(Cl)Cl
124 to 125 | COc1ccc(CN2CCN(C(=S)C3(C)CCc4c(C)c(O)c(C)c(C)c4O3)CC2)c(OC)c1OC (stereo not given)

melting point [°C] | SMILES
214 to 215 | CC(OC1CCCN(Cc2n[nH]c(=O)[nH]2)C1c1ccccc1)c1cc(C(F)(F)F)cc(C(F)(F)F)c1 (stereo not given)
160 to 162 | COC(=O)c1cc2cc(OC)ccc2cc1/N=C/N(C)C
145 to 150 | CC(C)c1cc(OCCN2CCOCC2)cc2c1C(=O)N(COc1cc(=O)n3cccc(OCCCN4CCOCC4)c3n1)S2(=O)=O
114 to 116 | CCCCOc1cc(CCS(=O)(=O)NC(=O)OCC(C)C)n(Cc2ccc(Cl)cc2Cl)n1
142 | CC(C)(C)c1ccc([PH](=O)c2ccc(C(C)(C)C)cc2)cc1
104 to 106 | CCCCCCCCCCc1nnnn1CC(=O)O
134 to 135 | COc1cccc(CC(=O)O)c1OCCCn1cc(C(=O)NCc2ccc(Cl)cc2Cl)c(OC(C)C)n1
249 to 252 | O=C1Cc2ccccc2C(c2c(F)cccc2Cl)N1 (stereo not given)
128 to 129 | Cc1ccnc(S(=O)(=O)c2ccccc2)c1
160 to 161 | Cc1ccc(-c2nc(C(=O)O)c(C)s2)s1
201 to 203 | COc1cnc(OC)n2nc(NS(=O)(=O)c3c(F)cccc3C(F)(F)F)nc12
105 | CC(CCCn1cc(CCO)c(=O)[nH]c1=O)C(=O)O (stereo not given)
130 to 131 | CCCCOc1c(CNC(=O)OC(C)(C)C)n(CC(C)C)c(=O)c2ccc(-c3cccs3)cc12
142 | O=C1c2ccccc2C(OCCc2ccccn2)N1c1ccc2ccc(Cl)nc2n1 (stereo not given)
30 to 33 | COC(=O)c1ccc(OCC=C(C)CCC=C(C)C)cc1
170 to 171 | Cc1oc(-c2ccccc2)nc1COc1ccc(CSc2nc(CCC(=O)O)n[nH]2)cc1
248 | Oc1ccc2nc(-c3cccc(Br)c3)oc2c1
